Bounds are passed on as bounds.

The first assay has as its system RSV. The assay can be described thus: XTT assay, RSV-infected Vero cells. The class given is cell-based, Respiratory Syncytial Virus (RSV). Particulars: Table 1; Vero cells infected with RSV, m.o.i.≈0.2, 6 days at 33° C.; read-out: XTT IC50. Here is the method: Examples 1 to 74 and 83 to 124 were tested using the following protocol.
The inner 60 wells of 96 well tissue culture plates were seeded with Vero cells at 3×10^4 cells/well (1×10^4 cells/well for toxicity studies) in 100 or 150 μl of medium and incubated at 37° C. overnight or until nearing confluency. For primary screen, 25 μl compounds were added directly to 100 μl medium in single wells to duplicate plates. A third plate was prepared for simultaneous toxicity investigation.
For follow-up investigation, 70 μl of compound in duplicate wells were added directly to culture medium at 3.2× final concentration and ½ log serially diluted down columns of plate. A duplicate plate was prepared for simultaneous toxicity investigation.
Cells were infected with 25 μl RSV to give m.o.i.≈0.2. Some 100 μl of sterile distilled water were added to the outer wells of the plate and incubated at 33° C. for 6 days. Some 0.25 μl/ml PMS were added to stock XTT solution, final conc. […]. Then 25 μl warmed XTT/PMS solution were added to each well and incubated for 5 hours at 37° C. Plates were shaken (DynaTech Vari-Shaker) vigorously for 10 mins and allowed to cool for 15 mins before sealing. Absorbance at 450 nm was measured and data analysed using Microsoft Excel software.
Maximum OD450nm reading (uninfected, untreated control cells) corresponded to 100% inhibition. Minimum OD450nm readings (infected control cells) corresponded to 0% inhibition. Log 10 concentration was plotted against OD450nm and IC50 (Table 1) values were calculated from either reading 50% value from graph or using regression analysis.
A word on the IC50: it is the concentration at which inhibition is half-maximal. Consider `CS(=O)(=O)NC1N=C(c2ccccc2)c2cc(Cl)ccc2NC1=O` (stereo not shown) [Example 53, N-(7-Chloro-2-oxo-5-phenyl-2,3-dihydro-1H-benzo[e][1,4]diazepin-3-yl)-methanesulformide], for which the IC50 was found to be 5 µM.
Still for that read-out and setting: with `O=C(NC1N=C(c2ccccc2)c2ccccc2NC1=O)C1CCCCC1` (stereo not shown) [Example 8] the figure was 2 µM; with `O=C(NC1N=C(c2ccccc2)c2ccccc2NC1=O)c1cccs1` (stereo not shown) [Example 14, Thiophene-2-carboxylic acid (2-oxo-5-phenyl-2,3-dihydro-1H-benzo[e][1,4]diazepin-3-yl)-3-amide], 1.5 µM; with `COc1ccc(C(=O)NC2N=C(c3ccccc3)c3ccccc3NC2=O)cc1` (stereo not shown) [Example 10, 4-Methoxy N-(2-oxo-5-phenyl-2,3-dihydro-1H-benzo[e][1,4]diazepin-3-yl)-benzamide], 1.5 µM.

Staying with this assay, now noted: human respiratory syncytial virus, 144 h; Table 1; Vero cells infected with RSV, m.o.i.≈0.2, 6 days at 33° C.; read-out: XTT IC50.
With `O=C(Nc1ccc(Cl)cc1)NC1N=C(c2ccccc2)c2ccccc2NC1=O` (stereo not shown) [Example 71, 1-(4-Chloro-phenyl)-3-(2-oxo-5-phenyl-2,3-dihydro-1H-benzo[e][1,4]diazepin-3-yl)-urea], the IC50 came out at 3 µM.

The assay is the same for the next values; noted with them: human respiratory syncytial virus, Vero, 144 h, read-out: XTT IC50 (uM), Table 1; Vero cells infected with RSV, m.o.i.≈0.2, 6 days at 33° C.
In the case of `O=C(NC1N=C(c2ccccc2)c2ccccc2NC1=O)c1ccc(Cl)c(Cl)c1` (stereo not shown) [Example 21, 3,4-Dichloro-N-(2-oxo-5-phenyl-2,3-dihydro-1H-benzo[e][1,4]diazepin-3-yl)-benzamide], the IC50 is 6 µM.
Still for that read-out and setting: then `O=C1Nc2ccccc2C(c2ccccc2)=NC1NCc1ccc(C(F)(F)F)cc1` (stereo not shown) [Example 49, 5-Phenyl-3-(4-trifluoromethyl-benzylamino)-1,3-dihydro-benzo[e][1,4]diazepin-2-one], with 50 µM; and `O=C(Cc1ccc([N+](=O)[O-])cc1)NC1N=C(c2ccccc2)c2ccccc2NC1=O` (stereo not shown) [Example 63, 2-(4-Nitro-phenyl)-N-(2-oxo-5-phenyl-2,3-dihydro-1H-benzo[e][1,4]diazepin-3-yl)-acetamide], with 1.7 µM; and `O=C(Nc1ccccc1Cl)NC1N=C(c2ccccc2)c2ccccc2NC1=O` (stereo not shown) [Example 70, 1-(2-Chloro-phenyl)-3-(2-oxo-5-phenyl-2,3-dihydro-1H-benzo[e][1,4]diazepin-3-yl)-urea], with 1.5 µM.
Same read-out and setting: with `O=C(NC1N=C(c2ccccc2)c2ccccc2NC1=O)c1cccc(C(F)(F)F)c1` (stereo not shown) [Example 12, N-(2-Oxo-5-phenyl-2,3-dihydro-1H-benzo[e][1,4]diazepin-3-yl)-3-trifluoromethyl-benzamide] the figure was 2.5 µM; with `COc1cc([N+](=O)[O-])ccc1C(=O)NC1N=C(c2ccccc2)c2ccccc2NC1=O` (stereo not shown) [Example 27a, 2-Methoxy-4-nitro-N-(2-oxo-5-phenyl-2,3-dihydro-1H-benzo[e][1,4]diazepin-3-yl)-benzamide], 0.3 µM; with `O=C1Nc2ccccc2C(c2ccccc2)=NC1NCc1cccc([N+](=O)[O-])c1` (stereo not shown) [Example 43, 3-(3-Nitro-benzylamino)-5-phenyl-1,3-dihydro-benzo[e][1,4]diazepin-2-one], 30 µM.
Still for that read-out and setting: with `O=C1Nc2ccccc2C(c2ccccc2)=NC1NC(=O)N1CCOCC1` (stereo not shown) [Example 17, Morpholine-4-carboxylic acid (2-oxo-5-phenyl-2,3-dihydro-1H-benzo[e][1,4]diazepin-3-yl)-amide] the figure was 5 µM; with `O=C(NC1N=C(c2ccccc2)c2ccccc2NC1=O)c1ccc(Br)cc1` (stereo not shown) [Example 23, 4-Bromo-N-(2-oxo-5-phenyl-2,3-dihydro-1H-benzo[e][1,4]diazepin-3-yl)-benzamide], 5 µM; with `O=C1Nc2ccccc2C(c2ccccc2)=NC1NCc1ccc([N+](=O)[O-])cc1` (stereo not shown) [Example 44, 3-(4-Nitro-benzylamino)-5-phenyl-1,3-dihydro-benzo[e][1,4]diazepin-2-one], 10 µM.
On to `O=C(Cc1cccc([N+](=O)[O-])c1)NC1N=C(c2ccccc2)c2ccccc2NC1=O` (stereo not shown) [Example 64, 2-(3-Nitro-phenyl)-N-(2-oxo-5-phenyl-2,3-dihydro-1H-benzo[e][1,4]diazepin-3-yl)-acetamide], for which the IC50 is 1 µM.
For `O=C(NC1N=C(c2ccccc2)c2ccccc2NC1=O)c1cccnc1` (stereo not shown) [Example 34, N-(2-Oxo-5-phenyl-2,3-dihydro-1H-benzo[e][1,4]diazepin-3-yl)-nicotinamide], the IC50 was 3 µM.
The same measure, in the same setting: with `CCCC(=O)NC1N=C(c2ccccc2)c2ccccc2NC1=O` (stereo not shown) [Example 4, N-(2-Oxo-5-phenyl-2,3-dihydro-1H-benzo[e][1,4]diazepin-3-yl)-butyramide] the figure was 5 µM; with `O=C(Cc1ccc(C(F)(F)F)cc1)NC1N=C(c2ccccc2)c2ccccc2NC1=O` (stereo not shown) [Example 67, N-(2-Oxo-5-phenyl-2,3-dihydro-1H-benzo[e][1,4]diazepin-3-yl)-2-(4-trifluoromethyl-phenyl)-acetamide], 1.5 µM; with `COc1cccc(CNC2N=C(c3ccccc3)c3ccccc3NC2=O)c1` (stereo not shown) [Example 46, 3-(3-Methoxy-benzylamino)-5-phenyl-1,3-dihydro-benzo[e][1,4]diazepin-2-one], 30 µM.
The same measure, in the same setting: then `Cc1ccccc1C(=O)NC1N=C(c2ccccc2)c2ccccc2NC1=O` (stereo not shown) [Example 24, 2-Methyl-N-(2-oxo-5-phenyl-2,3-dihydro-1H-benzo[e][1,4]diazepin-3-yl)-benzamide], with 3 µM; and `COc1ccccc1CC(=O)NC1N=C(c2ccccc2)c2ccccc2NC1=O` (stereo not shown) [Example 60, 2-(2-Methoxy-phenyl)-N-(2-oxo-5-phenyl-2,3-dihydro-1H-benzo[e][1,4]diazepin-3-yl)-acetamide], with 5 µM; and `COc1cccc(CC(=O)NC2N=C(c3ccccc3)c3ccccc3NC2=O)c1` (stereo not shown) [Example 61, 2-(3-Methoxy-phenyl)-N-(2-oxo-5-phenyl-2,3-dihydro-1H-benzo[e][1,4]diazepin-3-yl)-acetamide], with 3 µM.
On the same count and under the same terms, with `O=C(NC1N=C(c2ccccc2)c2ccccc2NC1=O)c1ccno1` (stereo not shown) [Example 30, Isoxazole-5-carboxylic acid (2-oxo-5-phenyl-2,3-dihydro-1H-benzo[e][1,4]diazepin-3-yl)-amide] the figure was 3 µM; with `O=C(NC1N=C(c2ccccc2)c2ccccc2NC1=O)c1ccsc1` (stereo not shown) [Example 32, Thiophen-3-carboxylic acid (2-oxo-5-phenyl-2,3-dihydro-1H-benzo[e][1,4]diazepin-3-yl)-amide], 2 µM.
For `O=C(NC1N=C(c2ccccc2)c2ccccc2NC1=O)c1cc2ccccc2s1` (stereo not shown) [Example 31, Benzo[b]thiophene-2-carboxylic acid (2-oxo-5-phenyl-2,3-dihydro-1H-benzo[e][1,4]diazepin-3-yl)-amide], the IC50 was found to be 5 µM.
Same read-out and setting: with `COc1cc([N+](=O)[O-])ccc1C(=O)N[C@H]1N=C(c2ccccc2)c2ccccc2NC1=O` [Example 27b, (S)-2-Methoxy-4-nitro-N-(2-oxo-5-phenyl-2,3-dihydro-1H-benzo[e][1,4]diazepin-3-yl)-benzamide] the figure was less than 0.3 µM.
As to `O=C1Nc2ccccc2C(c2ccccc2)=NC1NS(=O)(=O)c1ccc(Br)cc1` (stereo not shown) [Example 40, 4-Bromo-N-(2-oxo-5-phenyl-2,3-dihydro-1H-benzo[e][1,4]diazepin-3-yl)-benzenesulfonamide], the IC50 was found to be 10 µM.
In the case of `O=C(NC1N=C(c2ccccc2)c2ccccc2NC1=O)c1ccccc1C(F)(F)F` (stereo not shown) [Example 22, N-(2-oxo-5-phenyl-2,3-dihydro-1H-benzo[e][1,4]diazepin-3-yl)-2-trifluoromethyl-benzamide], the IC50 is 4 µM.
On the same count and under the same terms, with `O=C1Nc2ccccc2C(c2ccccc2)=NC1NCc1ccccc1C(F)(F)F` (stereo not shown) [Example 47, 5-Phenyl-3-(2-trifluoromethyl-benzylamino) 1,3-dihydro-benzo[e][1,4]diazepin-2-one] the figure was 30 µM; with `O=C(NC1N=C(c2ccccc2)c2cc(Cl)ccc2NC1=O)c1ccco1` (stereo not shown) [Example 54, Furan-2-carboxylic acid (7-chloro-2-oxo-5-phenyl-2,3-dihydro-1H-benzo[e][1,4]diazepin-3-yl)-amide], 1.5 µM; with `CN1CCN(C(=O)NC2N=C(c3ccccc3)c3ccccc3NC2=O)CC1` (stereo not shown) [Example 20, 4-Methyl-piperazine-1-carboxylic acid-(2-oxo-5-phenyl-2,3-dihydro-1H-benzo[e][1,4]diazepin-3-yl)-amide], 25 µM.
Take `COc1ccccc1C(=O)NC1N=C(c2ccccc2)c2cc(Cl)ccc2NC1=O` (stereo not shown) [Example 57, N-(7-Chloro-2-oxo-5-phenyl-2,3-dihydro-1H-benzo[e][1,4]diazepin-3-yl)-2-methoxy-benzamide]: the IC50 worked out at 0.7 µM.
The same measure, in the same setting: then `O=C(NC1N=C(c2ccccc2)c2ccccc2NC1=O)c1ccccc1Cl` (stereo not shown) [Example 25, 2-Chloro-N-(2-oxo-5-phenyl-2,3-dihydro-1H-benzo[e][1,4]diazepin-3-yl)-benzamide], with 2 µM.

(Values after patent US8119630B2 (Arrow Therapeutics Limited, priority 2002, dated 2012).)
